For one test, the system named is MAP2. Briefly: MAP2 gene expression in 451Lu cell line (qPCR). Type of test: cell-based. As to conditions: relative to the cell line only negative control. On the procedure:
Cells were plated in 12-well plates at density of 2×10^5 cells/well. After 24 h cells were treated with either DMSO or Vemurafenib (662005; EMD Millipore; VEMU; SKMEL28, SKMEL31, 451Lu, HT29 (1 μM) SKMEL2 (10 μM) or Azacytidine-C (A3656; Sigma Aldrich; AzaC; 5 μg/ml) or both drugs (VEMU+Aza) together, in presence of 10% bacteria supernatants or absence of it (YCFA+). Total RNA was extracted using the RNeasy mini kit (Qiagen, Manchester, UK) according to the manufacturer's instructions, and the RNA concentration was determined by spectrophotometer at 260/280 nm (NanoDrop ND-1000; Thermo Fisher Scientific, Loughborough). For mRNA expression analysis, cDNA was prepared from 2000 ng of total RNA using the High-Capacity cDNA reverse transcription kit (Thermo Fisher, Loughborough) according to the manufacturer's instructions. The reverse transcription reactions were performed in a thermocycler (Biometra, Germany) at 25° C. for 10 min, 37° C. for 120 min, and 85° C. for 5 min Resulting cDNA was amplified in duplicates by the SYBR-Green PCR assay, and products were detected on QuantStudio 6 flex real-time PCR machine (Applied Biosystems, UK) using a standardised profile (initial denaturation of 95° C. for 10 minutes, followed by 40 cycles of 10 seconds of denaturation at 95° C. and 30 seconds of annealing/extension at 65° C.). […]

The next test has as its system HDAC. Briefly: HDAC inhibition on whole HT-29 cells. Type of test: cell-based. On the procedure: Pure cultures of bacteria were grown anaerobically in YCFA+ broth until they reached their stationary growth phase. Cultures were centrifuged at 5,000×g for 5 minutes and the cell-free supernatant (CFS) was filtered using a […] (Millipore, UK). 1 mL aliquots of the CFS were stored at −80° C. until use. Sodium butyrate, hexanoic and valeric acid were obtained from Sigma Aldrich (UK) and suspensions were prepared in YCFA+ broth.
To investigate which metabolites were responsible for the strain-induced HDAC inhibition, different concentrations of hexanoic acid, valeric acid and sodium butyrate were measured for their HDAC inhibition on whole HT-29 cells and on HT-29 cell lysate.

The next test deals with IL-8. In words: IL-8 secretion in U373 cells treated with SCFAs or supernatant fractions (ELISA). In kind it is cell-based, Human. As to conditions: U373 cells, with or without 1 μg/ml LPS, 24 h. On the procedure:
Human glioblastoma astrocytoma cell line (U373), were maintained in 25 ml MEME 4.5 g/L D-glucose supplemented with 10% heat-inactivated FBS, 4 mM L-Glutamine, 100 U/ml penicillin, 100 μg/ml streptomycin and 5 μg/ml plasmocin, 1% Non-Essential Amino Acids, 1% Sodium Pyruvate (referred to as full growth media).
U373 cells were prepared as described above. Cells were pre-treated for 1 h with 1 μg/ml LPS indicated above and incubated at 37° C. and 5% CO2. After 1 h pre-incubation, cells were removed from CO2 incubator and treated with increasing concentration of fresh prepared Sodium Butyrate (SB), Sodium Valerate (SV) and Hexanoic Acid (HA).
U373 cells were prepared as described above. Cells were pre-treated for 1 h with 1 μg/ml LPS as indicated above. Afterwards, cells were removed from CO2 incubator and treated with 100 μl of the different fractions. Fractions from media were used as controls. Cell-free supernatants were collected 24 h after treatment and analysed by ELISA for IL-8 secretion (as outlined above).

Megasphaera massiliensis MRx0029: in the test with MAP2, the MAP2 gene expression entry was “increased MAP2 gene expression”. The “HDAC inhibition on whole HT-29 cells” value in the test with HDAC is reported as “strong HDAC inhibition”. Further, the “IL-8 secretion in the presence and absence of LPS” value in the test with IL-8 is listed as “induced IL-8 secretion”.

The record behind these values is patent US11419902B2, “Compositions comprising bacterial strains” (4D Pharma Research Limited, priority 2018, dated 2022).
